Data reported in patent US20230293519A1, “INTEGRIN INHIBITORS AND USES THEREOF IN COMBINATION WITH OTHER AGENTS” (Pliant Therapeutics, Inc., priority 2021, published 2023).

What was measured:
[1] = system: lung Col1a1 expression; experiment: Precision cut lung slices of mice under chronic bleomycin exposure (vs pirfenidone and nintedanib); format: cell-based, mouse; settings: slices cultured 7 days; nintedanib and pirfenidone at 10x therapeutic concentrations
Method: (§1) Mice (C57BL/6) were administered 3 U/kg of bleomycin (Teva Pharmaceuticals; North Wales, PA) on Day 0 and 1 U/kg of bleomycin on days 14, 28, 42 and 56 via oropharyngeal aspiration while under anesthesia. At day 70, 14 days following the final bleomycin insult, precision cut lung slices were obtained. Following euthanization, 2% low gelling temp agarose was injected into the mouse lungs via the trachea. […] The lobes were then subjected to precision slicing to obtain samples for culture using a microtome (Compresstome VF-300-0Z, Precisionary; Greenville, NC). Individual slices were distributed in a multiwell culture plate and cultured for 7 days under control (DMSO) and test compound conditions. The viability of the slices over the course of culturing was confirmed by WST-1 assay of mitochondrial activity.
During the culture period, slices in the control group were treated with DMSO and slices in the test group were treated with a DMSO solution of one of: compound 5; nintedanib; pirfenidone; a combination of nintedanib and compound 5; a combination of pirfenidone and compound 5; or the small molecule ALK5 inhibitor. Compound 5 was […] effective to equal or exceed its respective IC50 values at αvβ6 and αvβ1. The small molecule ALK5 inhibitor was analyzed at 10x its reported IC50 value. Nintendanib and pirfenidone were analyzed at concentrations 10x their reported therapeutic concentrations.

[2] = system: lung Col1a1 expression; experiment: Precision cut lung slices of mice under chronic bleomycin exposure (single vs dual integrin inhibition); format: cell-based, mouse; settings: slices cultured 7 days
Method: as §1, with “after” for “following”, “The viability of the slices over the course of culturing was confirmed by WST-1 assay of mitochondrial activity.” left out
During the culture period, slices in the control group were treated with DMSO and slices in the test group were treated with a DMSO solution of one of: the selective antibody αvβ6 inhibitor 3G9; the αvβ1-selective small molecule inhibitor; a combination of the selective antibody αvβ6 inhibitor 3G9 and the αvβ1-selective small molecule inhibitor; compound 5; and the small molecule ALK5 inhibitor. The selective αvβ1 and αvβ6 integrin inhibitors were analyzed at ≥ their respective IC90 concentrations for inhibition of TGF-beta activation. […] The small molecule ALK5 inhibitor was analyzed at 10x its reported IC50 value.

[3] = system: Type I Collagen gene Col1a1 expression; experiment: Precision cut lung slices of mice under acute bleomycin exposure; format: cell-based, mouse
Method: Mice (C57BL/6) were administered 3 U/kg of bleomycin (Teva Pharmaceuticals; North Wales, PA) on day 0 via oropharyngeal aspiration while under anesthesia. On day 14, precision cut lung slices were obtained. Following euthanization, 2% low gelling temp agarose was injected into the mouse lungs via the trachea. […] The lobes were then subjected to precision slicing to obtain samples for culture using a microtome (Compresstome VF-300-0Z, Precisionary; Greenville, NC). Individual slices were distributed in a multiwell culture plate and cultured for 3 days under control (DMSO) and test compound conditions.

[4] = system: lung Col1a1 expression; experiment: Precision cut lung slices from human IPF explants, 3 days; format: cell-based; settings: 3G9 ≥400 ng/mL, compound 5 179 nM, ALK5 inhibitor 1 µM
Excerpt: Explanted lung tissue was obtained from human IPF subjects and inflated with agarose as described in the preceding examples. Biopsy cores were obtained from the agarose-inflated lung tissue. The biopsy cores were subjected to precision slicing to obtain several hundred µm thick. Individual slices were distributed in a multiwell culture plate and cultured for 3 days under control (DMSO) and test compound conditions. The viability of the slices over the course of culturing was confirmed by WST-1 assay of mitochondrial activity.

[5] = system: fibrosis-related gene expression in explanted human lung tissue from patients with idiopathic pulmonary fibrosis; experiment: nCounter Fibrosis Panel gene expression in precision cut lung slices from IPF explants; format: cell-based; settings: IPF PCLS, 7 days, vs DMSO
Excerpt: Fibrosis-related gene expression in explanted human lung tissue from patients with idiopathic pulmonary fibrosis was examined in order to determine what impact combining Compound 5 treatment with standard-of-care drugs nintedanib or pirfenidone, has on the expression of such genes.
Samples used for this analysis are a subset (n = 4 of 7) of the lungs previously reported on in Decaris et al., Respir Res (2021) 22:265 (FIGS. 6 A and B). Briefly, tissue samples from patients with IPF were acquired at the time of lung transplantation. Precision cut lung slices were generated from the explants and cultured for 7 days in the presence of inhibitors (Compound 5, nintedanib, pirfenidone) at clinically relevant concentrations or vehicle (DMSO). Treated slices were lysed in mRNA-compatible buffer for gene expression analysis. For this study, the lysate from n = 6 slices per treatment per lung were pooled for analysis using the nCounter Fibrosis Panel (Nanostring) on the nCounter Max analyzer (Nanostring). This commercially available panel of 770 genes includes genes related to initial tissue damage response, chronic inflammation, proliferation of pro-fibrotic cells, and tissue modification leading to fibrotic disease. Technical quality control and normalization of raw Nanostring mRNA count data was performed using an R framework developed by Bhattacharya et al. (Bhattacharya A. et al., Brief Bioinform. 2021 May 20;22(3):bbaa163). The R packages limma (see URL www.bioconductor.org/packages/release/bioc/html/limma.html) and voom (Law, C.W. et al., Genome Biol. 2014 Feb 3;15(2):R29) were used to detect differentially expressed genes. Benjamini-Hochberg False Discovery Rate (FDR = 5%) was used to adjust p-values for multiple comparisons.

[6] = system: COL1A1 expression; experiment: PCLS from human IPF lung tissue, 7 days: COL1A1 expression; format: cell-based; settings: Compound 5 200 nM, nintedanib 75 nM, pirfenidone 50 µM, 5-7 IPF lungs
Method: PCLS from 5-7 idopathic pulmonary fibrosis (IPF) lung tissue samples were cultured for seven days with one of: DMSO; Compound 5 at 200 nM; nintedanib at 75 nM; pirfenidone at 50 µm; a combination of Compound 5 at 200 nM and nintedanib at 75 nM; a combination of Compound 5 at 200 nM and pirfenidone at 50 µm; or an Alk5 inhibitor at 1 µm. […] FIG. 6D is a bar graph showing relative expression of COL1A1 in precision cut lung slices (PCLS) from idopathic pulmonary fibrosis (IPF) lung tissue upon exposure to Comopund 5, clinical standard of care compounds nintedanib (Nin) and pirfenidone (Pirf), and an ALK5 inhibitor, all versus DMSO control.
PCLS from a single IPF lung tissue sample were cultured for seven days with Compound 5 at concentrations of 200 pM, 2 nM, 60 nM, 200 nM, and 1 µM, along with 0.1% DMSO control and an Alk5 inhibitor at 1 µM. […] COL1A1 expression is also graphed for the PCLS in the presence of 0.1% DMSO control, and an Alk5 inhibitor at 1 µM.

## Cc1cccc(-c2n[nH]cc2-c2ccc(F)c(-c3cnn(CCO)c3)c2)n1 [small molecule ALK5 inhibitor, 4-[2-Fluoro-5-[3-(6-methyl-2-pyridinyl)-1H-pyrazol-4-yl]phenyl]-1H-pyrazole-1-ethanol, reference compound]
[1]
  lung Col1a1 expression vs DMSO control: substantial, statistically significant
[2]
  lung Col1a1 expression vs DMSO control: greatest decrease
[3]; slices cultured 3 days, integrin inhibitors at IC50, pan-αv and ALK5 inhibitors at 10x IC50
  Type I Collagen gene Col1a1 expression vs DMSO control: greatest decrease
[4]
  lung Col1a1 expression vs DMSO control: substantial, statistically significant

## COC(=O)c1ccc2c(c1)NC(=O)/C2=C(\Nc1ccc(N(C)C(=O)CN2CCN(C)CC2)cc1)c1ccccc1 [nintedanib, 3-Z-[1-(4-(N-((4-methyl-piperazin-1-yl)-methylcarbonyl)-N-methyl-amino)-anilino)-1-phenyl-methylene]-6-methoxycarbonyl-2-indolinone]
[1]
  lung Col1a1 expression vs DMSO control: slight increase
[3]; acute bleomycin injured lung slices
  fold increase in concentration over compound 5 needed to reduce lung slice Col1a1 expression by 50%: 5.2 fold
[5]
  % Reduction of APOC2 expression: 16.88%
  % Reduction of CDH2 expression: -9.99%
  % Reduction of COL1A1 expression: 27.60%
  % Reduction of COL4A2 expression: 31.55%
  % Reduction of FAP expression: 35.72%
  % Reduction of FCGR3A/B expression: 33.44%
  % Reduction of ITGB3 expression: 16.60%
  % Reduction of LOX expression: 40.76%
  % Reduction of LOXL2 expression: 15.99%
  % Reduction of NID1 expression: 26.59%
  % Reduction of PDGFRB expression: 42.09%
  % Reduction of POSTN expression: 38.94%
  % Reduction of SERPINE1 expression: 9.75%
  % Reduction of SERPINH1 expression: 15.02%
  % Reduction of SPP1 expression: 59.73%
  % Reduction of TGFB1 expression: 21.04%
  % Reduction of THBS2 expression: 25.58%
  logFC of ACTA2 expression: 0.6841
  logFC of ACVRL1 expression: -1.329
  logFC of ADH1B expression: 0.8975
  logFC of ADH1C expression: 0.9337
  logFC of ALDH7A1 expression: 0.7402
  logFC of AMOTL2 expression: 0.5767
  logFC of CCL19 expression: 0.789
  logFC of CD34 expression: -1.516
  logFC of CDH5 expression: -2.328
  logFC of CETP expression: -1.732
  logFC of CFTR expression: 0.8907
  logFC of COL6A5 expression: 0.6309
  logFC of COL10A1 expression: -1.169
  logFC of COX4I2 expression: -2.07
  logFC of CXCL10 expression: -1.71
  logFC of CXCR4 expression: -1.727
  logFC of CYP2J2 expression: 1.025
  logFC of DLL4 expression: -2.786
  logFC of ELN expression: 0.8689
  logFC of FLT1 expression: -3.369
  logFC of FLT4 expression: -1.476
  logFC of FST expression: 1.092
  logFC of GPX2 expression: 1.178
  logFC of IGF1 expression: 0.632
  logFC of KLF5 expression: 0.8124
  logFC of LAMA3 expression: 0.6871
  logFC of MASP1 expression: 0.8164
  logFC of MET expression: 0.7131
  logFC of MMP8 expression: -1.053
  logFC of MMP9 expression: -1.1396
  logFC of MMP11 expression: -1.002
  logFC of MMP12 expression: -1.411
  logFC of NOS3 expression: -1.356
  logFC of NOTCH4 expression: -1.605
  logFC of OCLN expression: 0.6026
  logFC of PECAM1 expression: -1.967
  logFC of PYGM expression: 0.6237
  logFC of TEK expression: -1.206
  logFC of TPSAB1/B2 expression: -1.195
  logFC of WWC1 expression: 0.7518
[6]
  reduction of COL1A1 expression: did not significantly reduce
